Test [1] has as its target T1, ASIC1 (Homo sapiens, UniProt P78348).
T1 construct: drop of extra-cellular pH from 7.4 to 6.0 can induce transient inward currents in A172 and U87MG cells; endogenous in cells; host or cells: U87MG human glioblastoma cells (ATCC)
T1 sequence (P78348 1-528): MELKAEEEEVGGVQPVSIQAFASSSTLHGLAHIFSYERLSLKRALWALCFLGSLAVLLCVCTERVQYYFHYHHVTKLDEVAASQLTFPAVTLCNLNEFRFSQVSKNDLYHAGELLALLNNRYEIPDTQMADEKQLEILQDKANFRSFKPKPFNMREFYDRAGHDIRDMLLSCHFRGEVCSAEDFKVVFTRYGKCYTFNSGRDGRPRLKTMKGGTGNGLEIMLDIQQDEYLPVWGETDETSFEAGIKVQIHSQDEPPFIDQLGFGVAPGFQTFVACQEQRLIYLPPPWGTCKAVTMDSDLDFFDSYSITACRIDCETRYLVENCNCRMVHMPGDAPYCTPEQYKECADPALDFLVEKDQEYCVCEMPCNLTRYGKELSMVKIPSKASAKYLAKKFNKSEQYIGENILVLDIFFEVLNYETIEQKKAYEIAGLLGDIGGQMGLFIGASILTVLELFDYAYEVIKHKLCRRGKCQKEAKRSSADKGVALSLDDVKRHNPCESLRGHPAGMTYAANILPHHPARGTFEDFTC
Briefly: Whole-cell patch-clamp recording of acid-activated currents. In kind it is cell-based. The settings on record: PcTX1 20 nM perfusion for several minutes; pH drop 7.4 to 6.0; U87MG cells; n=5. The procedure: Whole-cell currents were recorded by patch-clamp techniques. The currents were recorded with an Axopatch 200B amplifier and low-pass filtered at 2 KHz, digitized using Digidata 1320 DAC unit. Cells were clamped at a holding potential of −80 mV. The patch pipettes were made from thin walled borosilicate glass micropipettes (1.5 mm diameter, World Precision Instruments, Sarasota, FL) by a micropipette puller (PP83; Tokyo, Japan). The range of pipette resistance was 3-5 MΩ when filled with intracellular solu-tion contained 140 mM CsF, 1 mM CaCl2, 2 mM MgCl2, 10 mM HEPES, 11 mM EGTA, 2 mM tet-raethylammonium chloride, and 4 mM MgATP; pH 7.3 adjusted with CsOH, 290 to 300 mOsm adjusted with sucrose. Cells were perfused with an extracellular fluid (ECF) contained 140 mM NaCl, 5.4 mM KCl, 2 mM CaCl2, 1 mM MgCl2, 10 mM Glucose, and 10 mM HEPES; pH 7.4 and 6.0 adjusted with NaOH, 320-330 mOsm. […] The data were recorded and analyzed with pClamp and Sigma Plot software.
To determine whether ASIC1 is expressed in human glioma cells, we first investigated the expression of ASIC1 protein in A172 and U87-MG cells by Western blotting. […] Next, the study detected the existence of acid-activated currents and the effect of pharmacologic agents on the currents. Acid-activated currents were recorded by whole cell patch-clamp. […]
Background: Patch clamp records ionic current or voltage across a cell membrane.

Test [2] concerns A172 cells. Briefly: Cell viability (MTT) proliferation assay, A172. In kind it is cell-based, human. The settings on record: 20 nM PcTX1, 3 h in pH 7.4 or 7.0 ECF; 24 h, 48 h and 72 h. The method, then: (§1) Cells were seeded in 96-well plates overnight and then incubated with pH 7.4 or 7.0 ECF in the absence or presence of 20 nM PcTX1 for 3 h, and then changed to culture medium containing 5% FBS incubating for 24 h, 48 h and 72 h. After the treatments, cell viability was measured by MTT Cell Proliferation Assay Kit according to the manufacturer's instructions. The absorbance values at 540 nm were detected by spectrometer (Molecular devices).
(§2) Severe acidosis (e.g. pH 6.0) promotes the proliferation of some type of glioma cells. This study first tested the effect of weak acid on the proliferation of A172 and U87MG cells. The study used either pH 7.4 or pH 7.0 solution to pretreat cells for 3 h, and then changed back to medium containing 5% FBS. The cell viability was measured at 24 h, 48 h and 72 h after acid treatment by MTT assay.

Test [3] concerns U87MG cells. Description: Cell viability (MTT) proliferation assay, U87MG. The test is classed as cell-based, human. The settings on record: 20 nM PcTX1 with weak acid (pH 7.0), 3 h; different time points. The procedure:
as §1, §2
(§3) Next, the study examined whether knock-down of ASIC1 affects cell proliferation in the presence or absence of extracellular weak acid. MTT assay was performed to detect the cell viability at 24 h and 72 h with and without acid treatment both in siRNA-Control and siRNA-ASIC1 groups. […] The study further examined whether knockdown of ASIC1 has an effect on the migration of U87MG cells. […] The effect of ASIC1 knockdown on migration was also assessed by transwell.

The subject of test [4] is A172 cells. Description: Transwell migration assay, A172. The test is classed as cell-based, human. The settings on record: PcTX1 20 nM, pH 7.0 for 3 h, counted after 24 h. The method, then:
(§4) The assay is based on two compartments separated by a mem-brane with an accurately defined pore size. Cell transwell chambers with 8-μm pore size of poly-carbonate membrane filters (Corning, USA) were first pre-coated with poly-L-ornithine over-night. Before plating cells, chambers were incubated with serum-free culture medium for 30 minutes. After that, cells were seeded with culture medium containing 1% FBS in the upper-chambers that were immersed to 750 μl whole medium (DMEM with 10% FBS). After incubating for another 24 hours, some cells on the upper surface of the filter migrated through the membrane to the lower surface of the filter. Cells on the upper face of the filter were wiped out thoroughly with cotton swabs, and those attached on the lower surface were fixed with 4% paraformaldehyde for 15 min. They were then stained with 0.5% crystal violet for 10 min, and let the membrane air dry. The cells on the lower surface of the membrane filter were counted under a microscope in 3-4 random fields with 10× magnification. Cell numbers in each group were normalized to the control groups. Assays were performed in at least 3 independent experiments.
To further examine the role of ASIC1 in glioma cell migration, the study performed a transwell migration assay using inserts with an 8-μm pore size. […]

In test [5] the test system is U87MG cells. Briefly: Transwell migration assay, U87MG. The test is classed as cell-based, human. The conditions noted are these: PcTX1, pH 7.0 for 3 h, counted after 24 h. The procedure: as §4, with “experiments. […]” for “experiments.”
Next, the study examined whether knock-down of ASIC1 affects cell proliferation in the presence or absence of extracellular weak acid. […] The effect of ASIC1 knockdown on migration was also assessed by transwell.

In test [6] the test system is U87MG cells. Briefly: Wound-healing assay, U87MG. In kind it is cell-based, human. The settings on record: weak acid pH 7.0. The method, then: (§5) Wound-healing assay was performed. Cells were seeded into a 24-well plate and grown to ˜80% confluence. The cell monolayer was scratched with 200 μl sterile pipette tip and treated with ECF with or without PcTX1 for 3 hours. The original wound areas at 0 hour were photographed with microscope (Olympus FSX100, 4×). After 3 hours, cells were then incubated with culture medium containing 1% FBS for 24 hours. 24 hours later, images were taken from the same location of the original wound areas and the migration distance was measured with Image J software. The wound-healing rate was calculated as: the ratio of wound closure=[(Area of original wound at 0 h−Area of wound after healing at 24 h)/Area of original wound at 0 h]×100%.
as §3

Test [7] deals with A172 cells. Briefly: Wound-healing assay, A172. The settings on record: weak acid pH 7.0. In kind it is cell-based, human. The procedure:
as §5

Where no end group is shown, it is not given here.

For “PcTX1 (LECWKRRRSFEVCVPKTPKT; ends and bridges not checked; cysteine pairing not given here)”, the “decrease of the peak of acid-activated currents” value in test [1] is recorded as 80%. Besides, in test [2], the “effect on proliferation of A172 cells (MTT)” value is recorded as “no influence”. Moreover, in test [3], the “effect on proliferation of U87MG cells (MTT)” value is “no clear effect”. Besides, the “effect on acid induced migration of A172 cells (transwell)” value in test [4] was “completely inhibited”. In addition, the “effect on acid-induced increase of migrated U87MG cells (transwell)” value in test [5] was “completely blocked”. In test [6], the “effect on acid-induced migration of U87MG cells (wound-healing and transwell, summary)” value is reported as “effectively blocked”. Further, in test [7], the “effect on acid-induced migration of A172 cells (wound-healing and transwell, summary)” value is “effectively blocked”.

Source of the values: patent US20240390457A1, “COMPOSITION AND METHOD OF TREATING BRAIN CANCER” (Morehouse School of Medicine, priority 2023, published 2024).
